Source: ChEMBL document CHEMBL3588835, “Discovery of a new chemical series of BRD4(1) inhibitors using protein-ligand docking and structure-guided design” (Bioorg Med Chem Lett, 2015)

Assays:
[1] = biological target: T1, Bromodomain-containing protein 2 (Homo sapiens, UniProt P25440); assay: Inhibition of HTRF binding to N-terminal His-tagged BRD2(2) (unknown origin) at 50 uM using biotinylated tetra-acetylated histone H4 peptide and Cryptate-labeled streptavidin incubated for 2 hrs by TR-FRET assay
Target sequence in this assay (P25440 whole entry, looked up): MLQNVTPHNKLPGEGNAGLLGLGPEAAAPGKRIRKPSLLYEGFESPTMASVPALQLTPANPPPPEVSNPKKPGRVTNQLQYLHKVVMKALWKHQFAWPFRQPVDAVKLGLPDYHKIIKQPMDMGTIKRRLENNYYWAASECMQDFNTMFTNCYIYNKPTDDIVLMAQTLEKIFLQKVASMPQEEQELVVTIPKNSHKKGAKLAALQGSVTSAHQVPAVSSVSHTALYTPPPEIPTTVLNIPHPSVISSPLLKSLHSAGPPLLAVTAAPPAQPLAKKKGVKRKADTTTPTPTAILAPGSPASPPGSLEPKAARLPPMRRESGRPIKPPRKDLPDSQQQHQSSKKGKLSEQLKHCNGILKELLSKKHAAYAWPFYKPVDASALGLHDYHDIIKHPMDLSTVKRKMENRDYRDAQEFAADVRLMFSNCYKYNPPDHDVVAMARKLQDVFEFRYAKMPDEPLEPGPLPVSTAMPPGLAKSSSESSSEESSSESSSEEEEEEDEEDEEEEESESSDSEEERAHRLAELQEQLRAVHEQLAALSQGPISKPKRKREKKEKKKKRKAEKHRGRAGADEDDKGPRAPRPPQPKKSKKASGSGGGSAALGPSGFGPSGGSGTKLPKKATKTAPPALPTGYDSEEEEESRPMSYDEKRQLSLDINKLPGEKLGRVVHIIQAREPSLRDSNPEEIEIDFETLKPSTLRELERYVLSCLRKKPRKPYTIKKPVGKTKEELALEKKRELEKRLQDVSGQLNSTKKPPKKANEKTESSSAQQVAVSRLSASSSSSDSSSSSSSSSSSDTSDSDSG

[2] = biological target: T2, Bromodomain-containing protein 4 (Homo sapiens, UniProt O60885); assay: Inhibition of HTRF binding to N-terminal His-tagged BRD4(1) (unknown origin) at 50 uM using biotinylated tetra-acetylated histone H4 peptide and Cryptate-labeled streptavidin incubated for 2 hrs by TR-FRET assay
[3] = biological target: T2, Bromodomain-containing protein 4; assay: Inhibition of HTRF binding to N-terminal His-tagged BRD4(1) (unknown origin) using biotinylated tetra-acetylated histone H4 peptide and Cryptate-labeled streptavidin incubated for 2 hrs by TR-FRET assay
[4] = biological target: T1, Bromodomain-containing protein 2; assay: Inhibition of HTRF binding to N-terminal His-tagged BRD2(2) (unknown origin) using biotinylated tetra-acetylated histone H4 peptide and Cryptate-labeled streptavidin incubated for 2 hrs by TR-FRET assay
Target sequence in this assay (P25440 whole entry): as the sequence (P25440 whole entry, looked up) above

SMILES | inhibition [1] [%] | inhibition [2] [%] | IC50 [3] [µM] | IC50 [4] [µM]
O=C1CN(C(=O)c2sc3ccccc3c2Cl)c2ccccc2N1 | 25 | 0 |  | 
O=C1CN(C(=O)c2cncc(-c3ccc(Cl)cc3)c2)c2ccccc2N1 |  |  | 49 | 
CC(=O)Nc1cccc(/C=C(/C(=O)N2CC(=O)Nc3ccccc32)c2ccccc2)c1 |  |  | 40 | 10
Cc1ccc(CC(=O)N2CC(=O)Nc3ccccc32)cc1 | 0 | 0 |  | 
O=C1CN(C(=O)c2cncc(-c3ccc(F)cc3)c2)c2ccccc2N1 |  |  | 47 | 
O=C1CN(C(=O)Cc2cccs2)c2ccccc2N1 | 0 | 0 |  | 
COc1ccc(CC(=O)N2CC(=O)Nc3ccccc32)cc1OC | 25 | 0 |  | 
COc1cccc(OCC(=O)N2CC(=O)Nc3ccccc32)c1 | 25 | 0 |  | 
O=C1CN(C(=O)c2cccc(C(F)(F)F)c2)c2ccccc2N1 | > 50 | > 25 |  | 
CC(C)Sc1ccccc1C(=O)N1CC(=O)Nc2ccccc21 | 25 | 0 |  | 
CSc1ccccc1C(=O)N1CC(=O)Nc2ccccc21 | > 50 | > 25 |  | 
N#Cc1cccc(-c2cncc(C(=O)N3CC(=O)Nc4ccccc43)c2)c1 |  |  | 44 | 12
O=C1CN(C(=O)c2cc(-c3cccc(Cl)c3)[nH]n2)c2ccccc2N1 | 0 | 0 |  | 
COc1ccc(/C=C(/C(=O)N2CC(=O)Nc3ccccc32)c2ccc(OC)cc2OC)cc1 |  |  | > 50 | > 50
COc1cc(C(=O)N2CC(=O)Nc3ccccc32)cc(-c2ccccc2)c1 |  |  | 13 | 
O=C1CN(C(=O)c2cncc(-c3cccc(O)c3)c2)c2ccccc2N1 |  |  | 29 | 
COc1ccc(/C=C(/C(=O)N2CC(=O)Nc3ccccc32)c2ccc(OC)c(OC)c2)cc1 |  |  | 18 | 26
COC(=O)c1ccc(/C=C(/C(=O)N2CC(=O)Nc3ccccc32)c2ccccc2)cc1 |  |  | 25 | 25
COc1ccc(/C=C(/C(=O)N2CC(=O)Nc3cc(OC)ccc32)c2ccccc2)cc1 |  |  | 34 | > 50
CS(=O)(=O)N(CC(=O)N1CC(=O)Nc2ccccc21)c1ccccc1F | 0 | 0 |  | 
O=C1CN(C(=O)c2cc(O)cc(-c3ccccc3)c2)c2ccccc2N1 |  |  | 9 | 
O=C1CN(C(=O)Cc2cccc3ccccc23)c2ccccc2N1 | > 50 | > 25 |  | 

SMILES | inhibition [1] [%] | inhibition [2] [%] | IC50 [3] [µM] | IC50 [4] [µM]
COc1ccc(/C=C(/C(=O)N2CC(=O)Nc3ccccc32)c2ccc(OC)cc2)cc1 |  |  | 16 | 13
COc1ccc(/C=C(/C(=O)N2CC(=O)Nc3cc(OC)ccc32)c2ccc(OC)cc2)cc1 |  |  | 13 | 13
NC(=O)c1ccc(/C=C(/C(=O)N2CC(=O)Nc3ccccc32)c2ccccc2)cc1 |  |  | 46 | 49
O=C1CN(C(=O)Cc2ccc(Cl)cc2)c2ccccc2N1 | 25 | 0 |  | 
CCc1ccc(CC(=O)N2CC(=O)Nc3ccccc32)cc1 | 0 | 0 |  | 
Cc1ccc(-c2cc(C(=O)N3CC(=O)Nc4ccccc43)[nH]n2)cc1 | 0 | 0 |  | 
O=C1CN(C(=O)CCc2ccccc2Cl)c2ccccc2N1 | 25 | 0 |  | 
COc1ccc(/C=C(/C(=O)N2CC(=O)Nc3ccccc32)c2cccs2)cc1 |  |  | 13 | 23
O=C1CN(C(=O)C(c2ccccc2)c2ccccc2)c2ccccc2N1 | > 50 | > 25 |  | 
COc1ccc(/C=C(/C(=O)Nc2c(C)noc2C)c2ccc(OC)cc2)cc1 |  |  | 44 | 12
CCn1ccc(C(=O)N2CC(=O)Nc3ccccc32)n1 | > 50 | > 25 |  | 
O=C1CN(C(=O)c2cccc(F)c2)c2ccccc2N1 | 25 | 0 |  | 
CSc1ccc(Cl)c(C(=O)N2CC(=O)Nc3ccccc32)c1 | 0 | 0 |  | 
COc1ccc(/C(=C\c2ccncc2)C(=O)N2CC(=O)Nc3ccccc32)cc1 |  |  | 25 | 5
COc1ccc(/C=C(/C(=O)N2CC(=O)Nc3ccccc32)c2ccccc2)cc1 | > 50 | > 25 | 26 | 22
O=C1CN(C(=O)c2cncc(-c3ccccc3)c2)c2ccccc2N1 |  |  | 26 | 20
Cc1cccc(OCCC(=O)N2CC(=O)Nc3ccccc32)c1 | 25 | 0 |  | 
COc1cccc(-c2cncc(C(=O)N3CC(=O)Nc4ccccc43)c2)c1 |  |  | 25 | 
CSc1ccc(CC(=O)N2CC(=O)Nc3ccccc32)cc1 | 0 | 0 |  | 
COc1ccc(/C=C(/C(=O)N2CC(=O)Nc3ccccc32)c2ccc(C)c(C)c2)cc1 |  |  | 14 | > 50
COc1ccc(/C=C(/C(=O)N2CC(=O)Nc3ccccc32)c2ccc(NC(C)=O)cc2)cc1 |  |  | 13 | 24
COc1cc(NCc2ccccc2)cc(C(=O)N2CC(=O)Nc3ccccc32)c1 |  |  | > 50 | 
